Key:
[1] = biological target: T1, isolated kinase domain of the human FLT3 receptor (a.a. 571-993) (Homo sapiens, UniProt P36888); test: FLT3 fluorescence polarization kinase assay; type: biochemical; settings: 150 uM ATP; uncertainty ±10%
T1 construct: human FLT3 receptor (a.a. 571-993)
T1 sequence (P36888 571-993): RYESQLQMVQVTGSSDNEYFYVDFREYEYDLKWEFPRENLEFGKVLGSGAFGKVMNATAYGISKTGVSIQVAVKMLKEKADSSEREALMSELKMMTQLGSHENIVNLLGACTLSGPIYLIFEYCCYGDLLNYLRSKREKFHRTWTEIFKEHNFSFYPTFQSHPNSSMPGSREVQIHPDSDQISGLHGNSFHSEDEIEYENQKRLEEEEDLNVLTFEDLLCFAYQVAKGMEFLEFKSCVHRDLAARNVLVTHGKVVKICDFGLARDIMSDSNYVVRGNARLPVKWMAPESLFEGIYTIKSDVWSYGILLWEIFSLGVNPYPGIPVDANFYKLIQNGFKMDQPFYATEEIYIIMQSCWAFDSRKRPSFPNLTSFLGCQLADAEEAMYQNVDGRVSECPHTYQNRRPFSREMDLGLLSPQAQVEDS
Protocol: The FLT3 FP assay utilizes the fluorescein-labeled phosphopeptide and the anti-phosphotyrosine antibody included in the Panvera Phospho-Tyrosine Kinase Kit (Green) supplied by Invitrogen. When FLT3 phosphorylates polyGlu4Tyr, the fluorescein-labeled phosphopeptide is displaced from the anti-phosphotyrosine antibody by the phosphorylated poly Glu4Tyr, thus decreasing the FP value. The FLT3 kinase reaction is incubated at room temperature for 30 minutes under the following conditions: 10 nM FLT3 571-993, 20 ug/mL poly Glu4Tyr, 150 uM ATP, 5 mM MgCl2, 1% compound in DMSO. The kinase reaction is stopped with the addition of EDTA. The fluorescein-labeled phosphopeptide and the anti-phosphotyrosine antibody are added and incubated for 30 minutes at room temperature.
All data points are an average of triplicate samples. Inhibition and IC50 data analysis was done with GraphPad Prism using a non-linear regression fit with a multiparamater, sigmoidal dose-response (variable slope) equation.

MV4-11 cells = test: Inhibition of MV4-11 cell proliferation (CellTiterGlo, 72 h); type: cell-based; settings: Homo sapiens; 72 h growth inhibition; uncertainty ±20%
Protocol: MV4-11 cells cannot grow and survive without active FLT3ITD.
To measure proliferation inhibition by test compounds, the luciferase based CellTiterGlo reagent (Promega), which quantifies total cell number based on total cellular ATP concentration, was used. Cells are plated at 10,000 cells per well in 100 ul of in RPMI media containing penn/strep, 10% FBS and 1 ng/ml GM-CSF or 1 ng/ml IL-3 for MV4-11 and Baf3 cells respectively.
Compound dilutions or 0.1% DMSO (vehicle control) are added to cells and the cells are allowed to grow for 72 hours at standard cell growth conditions (37° C., 5% CO2). For activity measurements in MV4-11 cells grown in 50% plasma, cells were plated at 10,000 cells per well in a 1:1 mixture of growth media and human plasma (final volume of 100 μL). To measure total cell growth an equal volume of CellTiterGlo reagent was added to each well, according to the manufacturer's instructions, and luminescence was quantified. Total cell growth was quantified as the difference in luminescent counts (relative light units, RLU) of cell number at Day 0 compared to total cell number at Day 3 (72 hours of growth and/or compound treatment). One hundred percent inhibition of growth is defined as an RLU equivalent to the Day 0 reading. Zero percent inhibition was defined as the RLU signal for the DMSO vehicle control at Day 3 of growth. All data points are an average of triplicate samples. […] Inhibition and IC50 data analysis was done with GraphPad Prism using a non-linear regression fit with a multiparamater, sigmoidal dose-response (variable slope) equation.
MV4-11 cells express the FLT3 internal tandem duplication mutation, and thus are entirely dependent upon FLT3 activity for growth. […] In contrast, the Baf3 cell proliferation is driven by the cytokine IL-3 and thus are used as a non-specific toxicity control for test compounds.

SMILES	IC50 [1] [nM]	IC50 (MV4-11 cells) [nM]
CS(=O)(=O)NCCCOc1ccc2c(C3CCN(C(=O)Nc4ccc(N5CCCC5)nc4)CC3)ncnc2c1 [Example 86, 4-[7-(3-Methanesulfonylamino-propoxy)-quinazolin-4-yl]-piperidine-1-carboxylic acid (6-pyrrolidin-1-yl-pyridin-3-yl)-amide]	1	17
COc1cc2ncnc(C3CCN(C(=O)Nc4ccc(-c5ccc(Cl)nc5)cc4)CC3)c2cc1OC [Example 60, 4-(6,7-Dimethoxy-quinazolin-4-yl)-piperidine-1-carboxylic acid [4-(6-chloro-pyridin-3-yl)-phenyl]-amide]	360	1400
O=C(Nc1ccc(N2CCOCC2)cc1)N1CCC(c2ncnc3cc(OCCN4CCOCC4)ccc23)CC1 [Example 96, 4-[7-(2-Morpholin-4-yl-ethoxy)-quinazolin-4-yl]-piperidine-1-carboxylic acid (4-morpholin-4-yl-phenyl)-amide]	36	235
COc1cc2ncnc(C3CCN(C(=O)Nc4ccc(C5=CCNCC5)cc4)CC3)c2cc1OC [Example 62, 4-(6,7-Dimethoxy-quinazolin-4-yl)-piperidine-1-carboxylic acid [4-(1,2,3,6-tetrahydro-pyridin-4-yl)-phenyl]-amide]	> 10000	7500
CS(=O)(=O)NCCCOc1ccc2c(C3CCN(C(=O)Nc4ccc(N5CCOCC5)nc4)CC3)ncnc2c1 [Example 87, 4-[7-(3-Methanesulfonylamino-propoxy)-quinazolin-4-yl]-piperidine-1-carboxylic acid (6-morpholin-4-yl-pyridin-3-yl)-amide]	32	69
CN1CCN(CCCOc2ccc3c(C4CCN(C(=O)Nc5cnc(N6CCCC6)nc5)CC4)ncnc3c2)CC1 [Example 105, 4-{7-[3-(4-Methyl-piperazin-1-yl)-propoxy]-quinazolin-4-yl}-piperidine-1-carboxylic acid (2-pyrrolidin-1-yl-pyrimidin-5-yl)-amide]	64	91
COc1cc2ncnc(C3CCN(C(=O)Nc4ccc(C(C)C)cc4)CC3)c2cc1OC [Example 4, 4-(6,7-Dimethoxy-quinazolin-4-yl)-piperidine-1-carboxylic acid (4-isopropyl-phenyl)-amide]	9	86
COc1cc2ncnc(C3CCN(C(=O)NC4CCC(C(C)(C)C)CC4)CC3)c2cc1OC (stereo not shown) [Example 54, 4-(6,7-Dimethoxy-quinazolin-4-yl)-piperidine-1-carboxylic acid (4-tert-butyl-cyclohexyl)-amide]	170	224
COc1cc2ncnc(C3CCN(C(=O)Nc4ccccc4)CC3)c2cc1OC [Example 45, 4-(6,7-Dimethoxy-quinazolin-4-yl)-piperidine-1-carboxylic acid phenylamide]	3700	16700
CC(C)Oc1ccc(NC(=O)N2CCC(c3ncnc4ccc(C#CCN5CCCCC5)cc34)CC2)cc1 [Example 14, 4-[6-(3-Piperidin-1-yl-prop-1-ynyl)-quinazolin-4-yl]-piperidine-1-carboxylic acid (4-isopropoxy-phenyl)-amide]	53	23
O=C(Nc1ccc(N2CCOCC2)cc1)N1CCC(c2ncnc3cc(OCCCN4CCC[C@H]4CO)ccc23)CC1 [Example 119, (S)-4-{7-[3-(2-Hydroxymethyl-pyrrolidin-1-yl)-propoxy]-quinazolin-4-yl}-piperidine-1-carboxylic acid (4-morpholin-4-yl-phenyl)-amide]	47	53
CC(C)Oc1ccc(NC(=O)N2CCC(c3ncnc4cc(OCCCN5CCCC5=O)ccc34)CC2)cc1 [Example 67, 4-{7-[3-(2-Oxo-pyrrolidin-1-yl)-propoxy]-quinazolin-4-yl}-piperidine-1-carboxylic acid (4-isopropoxy-phenyl)-amide]	3	9
O=C1CCCN1CCOc1ccc2c(C3CCN(C(=O)Nc4cnc(N5CCCC5)nc4)CC3)ncnc2c1 [Example 84, 4-{7-[2-(2-Oxo-pyrrolidin-1-yl)-ethoxy]-quinazolin-4-yl}-piperidine-1-carboxylic acid (2-pyrrolidin-1-yl-pyrimidin-5-yl)-amide]	41	74
CN1CCN(CCCOc2ccc3c(C4CCN(C(=O)Nc5ccc(OC6CCCC6)nc5)CC4)ncnc3c2)CC1 [Example 82, 4-{7-[3-(4-Methyl-piperazin-1-yl)-propoxy]-quinazolin-4-yl}-piperidine-1-carboxylic acid (6-cyclopentyloxy-pyridin-3-yl)-amide]	1	18
CC(C)Oc1ccc(NC(=O)N2CCC(c3ncnc4cc(N(C)C)ccc34)CC2)cc1 [Example 100, 4-(7-Dimethylamino-quinazolin-4-yl)-piperidine-1-carboxylic acid (4-isopropoxy-phenyl)-amide]	80	36
CN1CCC(COc2ccc3c(C4CCN(C(=O)Nc5ccc(OC6CCC6)nc5)CC4)ncnc3c2)CC1 [Example 107, 4-[7-(1-Methyl-piperidin-4-ylmethoxy)-quinazolin-4-yl]-piperidine-1-carboxylic acid (6-cyclobutoxy-pyridin-3-yl)-amide]	1	23
CCOc1ccc(NC(=O)N2CCC(c3ncnc4cc(OC)c(OC)cc34)CC2)cc1 [Example 44, 4-(6,7-Dimethoxy-quinazolin-4-yl)-piperidine-1-carboxylic acid (4-ethoxy-phenyl)-amide]	150	725
O=C1CCCN1CCCOc1ccc2c(C3CCN(C(=O)Nc4ccc(N5CCCC5)nc4)CC3)ncnc2c1 [Example 89, 4-{7-[3-(2-Oxo-pyrrolidin-1-yl)-propoxy]-quinazolin-4-yl}-piperidine-1-carboxylic acid (6-pyrrolidin-1-yl-pyridin-3-yl)-amide]	2	24
O=C(Nc1ccc(N2CCOCC2)nc1)N1CCC(c2ncnc3cc(OCCN4CCOC4=O)ccc23)CC1 [Example 91, 4-{7-[2-(2-Oxo-oxazolidin-3-yl)-ethoxy]-quinazolin-4-yl}-piperidine-1-carboxylic acid (6-morpholin-4-yl-pyridin-3-yl)-amide]	3	98
CCN1CCN(CCCOc2ccc3c(C4CCN(C(=O)Nc5ccc(N6CCOCC6)cc5)CC4)ncnc3c2)CC1 [Example 115, 4-{7-[3-(4-Ethyl-piperazin-1-yl)-propoxy]-quinazolin-4-yl}-piperidine-1-carboxylic acid (4-morpholin-4-yl-phenyl)-amide]	16	104
O=C(Nc1ccc(N2CCOCC2)cc1)N1CCC(c2ncnc3cc(OCCCN4CCCC4)ccc23)CC1 [Example 124, 4-[7-(3-Pyrrolidin-1-yl-propoxy)-quinazolin-4-yl]-piperidine-1-carboxylic acid (4-morpholin-4-yl-phenyl)-amide]	21	47
O=C(Nc1ccc(N2CCOCC2)cc1)N1CCC(c2ncnc3cc(OCCC4CCCCN4)ccc23)CC1 (stereo not shown) [Example 98, 4-[7-(2-Piperidin-2-yl-ethoxy)-quinazolin-4-yl]-piperidine-1-carboxylic acid (4-morpholin-4-yl-phenyl)-amide]	27	277
CC(=O)N1CCN(CCCOc2ccc3c(C4CCN(C(=O)Nc5ccc(N6CCOCC6)cc5)CC4)ncnc3c2)CC1 [Example 117, 4-{7-[3-(4-Acetyl-piperazin-1-yl)-propoxy]-quinazolin-4-yl}-piperidine-1-carboxylic acid (4-morpholin-4-yl-phenyl)-amide]	94	171
